Results taken from patent US12029748B2, “Synergistic composition for maintenance of healthy balance of microflora” (KIMBERLY-CLARK WORLDWIDE, INC., priority 2017, dated 2024).
Where a SMILES comes first, the peptide text is derived from it.

Test system: L. crispatus and E. coli
Assay: Therapeutic Effect Protocol: L. crispatus / E. coli co-culture, ratio after 36 hours
Format: cell-based, Lactobacillus crispatus; E. coli
Conditions: nitrogen compound 0.10 wt/vol % with 1.0 wt/vol % α methyl-D glucoside (10:1); 36 hours anaerobic co-culture, 37° C.
Outline: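 L. crispatus and E. coli were mixed 1,000:1 (10^5-10^6 and 100-1,000 CFU per 5 mL tube) in LAPT-g medium at pH 6.5, containing 1% α-methyl-D-glucoside plus nitrogen compound at 0.1-1% w/v, in duplicate. After 36 h anaerobic incubation at 37 °C, each species was counted by selective plating (MRS anaerobic, TSA aerobic), and the L. crispatus:E. coli ratio and final pH were recorded.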

| SMILES | Therapeutic Efficacy Results (Lactobacillus/E. coli) 0.10% |
| --- | --- |
| N[C@@H](CO)C(=O)O [L-Serine] | 393 |
| C[C@H](N)C(=O)N[C@@H](CCC(=O)O)C(=O)O [Ala-Glu] (H-Ala-Glu-OH) | 10.67 |
| Cl.NCCC[C@H](N)C(=O)O [L-Ornthine] | 1.31 |
| CC(C)[C@H](N)C(=O)O [L-Valine] | 1.34 |
| CC(O)C(N)=O (stereo not drawn) [DL Lactamide] | 7.52 |
| NO [Hydroxylamine] | 0.20 |
| NCC(=O)N[C@@H](CC(N)=O)C(=O)O [Gly-Asn] (H-Gly-Asn-OH) | 108 |

Same assay, conditions: nitrogen compound 0.50 wt/vol % with 1.0 wt/vol % α methyl-D glucoside (2:1); 36 hours anaerobic co-culture, 37° C.

| SMILES | Therapeutic Efficacy Results (Lactobacillus/E. coli) 0.50% |
| --- | --- |
| N[C@@H](CO)C(=O)O [L-Serine] | >299 |
| Cl.NCCC[C@H](N)C(=O)O [L-Ornthine] | 1.24 |
| CC(C)[C@H](N)C(=O)O [L-Valine] | 0.38 |
| CC(O)C(N)=O (stereo not drawn) [DL Lactamide] | >1330 |
| NCC(=O)N[C@@H](CC(N)=O)C(=O)O [Gly-Asn] (H-Gly-Asn-OH) | >1.58E+04 |

Same assay, conditions: nitrogen compound 1.00 wt/vol % with 1.0 wt/vol % α methyl-D glucoside (1:1); 36 hours anaerobic co-culture, 37° C.

| SMILES | Therapeutic Efficacy Results (Lactobacillus/E. coli) 1.00% |
| --- | --- |
| N[C@@H](CO)C(=O)O [L-Serine] | 0.45 |
| Cl.NCCC[C@H](N)C(=O)O [L-Ornthine] | 3.97 |
| CC(C)[C@H](N)C(=O)O [L-Valine] | 1.01 |
| CC(O)C(N)=O (stereo not drawn) [DL Lactamide] | 0.8 |
| NCC(=O)N[C@@H](CC(N)=O)C(=O)O [Gly-Asn] (H-Gly-Asn-OH) | 1.3 |

Same assay, conditions: with α methyl-D glucoside; ratio 1:1

| SMILES | Therapeutic effect when ratio α methyl-D glucoside : nitrogen compound is less than 2:1 (1:1) |
| --- | --- |
| Cl.NCCC[C@H](N)C(=O)O [L-Ornthine] | provided a therapeutic effect |

Same assay, conditions: with α methyl-D glucoside; ratio at least about 2:1, not 1:1

| SMILES | Therapeutic effect when ratio α methyl-D glucoside : nitrogen compound is at least about 2:1, but not at 1:1 |
| --- | --- |
| N[C@@H](CO)C(=O)O [L-Serine] | provided a therapeutic effect |
| C[C@H](N)C(=O)N[C@@H](CCC(=O)O)C(=O)O [Ala-Glu] (H-Ala-Glu-OH) | provided a therapeutic effect |
| CC(O)C(N)=O (stereo not drawn) [DL Lactamide] | provided a therapeutic effect |
| NCC(=O)N[C@@H](CC(N)=O)C(=O)O [Gly-Asn] (H-Gly-Asn-OH) | provided a therapeutic effect |

Same assay, conditions: with α methyl-D glucoside; ratios 2:1 and 10:1, not 1:1

| SMILES | Therapeutic effect at ratio 2:1 and 10:1, but not at 1:1 |
| --- | --- |
| N[C@@H](CO)C(=O)O [L-Serine] | provided a therapeutic effect |
| CC(O)C(N)=O (stereo not drawn) [DL Lactamide] | provided a therapeutic effect |
| NCC(=O)N[C@@H](CC(N)=O)C(=O)O [Gly-Asn] (H-Gly-Asn-OH) | provided a therapeutic effect |

Test system: not listed separately
Assay: Initial pH screening of the composition
Format: physicochemical
Conditions: nitrogen compound 0.10 wt/vol % with 1.0 wt/vol % α methyl-D glucoside in medium
Outline: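 Compounds were added to LAPT-g medium (pH adjusted to 6.5) at a final 0.1-1.0%. Solubility was judged visually by precipitate or turbidity, and insoluble compositions got no pH measurement. Initial pH was scored Low (<5.5), High (>6.5) or Pass (5.5-6.5), and only soluble Pass compositions went on to efficacy testing.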

| SMILES | I pH (initial pH), 0.10% |
| --- | --- |
| N[C@@H](CO)C(=O)O [L-Serine] | P (a Pass initial pH corresponds to the pH being at or between 5.5-6.5) |
| C[C@H](N)C(=O)N[C@@H](CCC(=O)O)C(=O)O [Ala-Glu] (H-Ala-Glu-OH) | P (a Pass initial pH corresponds to the pH being at or between 5.5-6.5) |
| Cl.NCCC[C@H](N)C(=O)O [L-Ornthine] | P (a Pass initial pH corresponds to the pH being at or between 5.5-6.5) |
| CC(C)[C@H](N)C(=O)O [L-Valine] | P (a Pass initial pH corresponds to the pH being at or between 5.5-6.5) |
| CC(O)C(N)=O (stereo not drawn) [DL Lactamide] | P (a Pass initial pH corresponds to the pH being at or between 5.5-6.5) |
| NO [Hydroxylamine] | H (a High initial pH corresponds to an initial pH being greater than 6.5) |
| NCC(=O)N[C@@H](CC(N)=O)C(=O)O [Gly-Asn] (H-Gly-Asn-OH) | P (a Pass initial pH corresponds to the pH being at or between 5.5-6.5) |

Same assay, conditions: nitrogen compound 0.50 wt/vol % with 1.0 wt/vol % α methyl-D glucoside in medium

| SMILES | I pH (initial pH), 0.50% |
| --- | --- |
| N[C@@H](CO)C(=O)O [L-Serine] | P (a Pass initial pH corresponds to the pH being at or between 5.5-6.5) |
| C[C@H](N)C(=O)N[C@@H](CCC(=O)O)C(=O)O [Ala-Glu] (H-Ala-Glu-OH) | L (A Low initial pH corresponds to an initial pH being less than 5.5) |
| Cl.NCCC[C@H](N)C(=O)O [L-Ornthine] | P (a Pass initial pH corresponds to the pH being at or between 5.5-6.5) |
| CC(C)[C@H](N)C(=O)O [L-Valine] | P (a Pass initial pH corresponds to the pH being at or between 5.5-6.5) |
| CC(O)C(N)=O (stereo not drawn) [DL Lactamide] | P (a Pass initial pH corresponds to the pH being at or between 5.5-6.5) |
| NO [Hydroxylamine] | H (a High initial pH corresponds to an initial pH being greater than 6.5) |
| NCC(=O)N[C@@H](CC(N)=O)C(=O)O [Gly-Asn] (H-Gly-Asn-OH) | P (a Pass initial pH corresponds to the pH being at or between 5.5-6.5) |

Same assay, conditions: nitrogen compound 1.00 wt/vol % with 1.0 wt/vol % α methyl-D glucoside in medium

| SMILES | I pH (initial pH), 1.00% |
| --- | --- |
| N[C@@H](CO)C(=O)O [L-Serine] | P (a Pass initial pH corresponds to the pH being at or between 5.5-6.5) |
| C[C@H](N)C(=O)N[C@@H](CCC(=O)O)C(=O)O [Ala-Glu] (H-Ala-Glu-OH) | L (A Low initial pH corresponds to an initial pH being less than 5.5) |
| Cl.NCCC[C@H](N)C(=O)O [L-Ornthine] | P (a Pass initial pH corresponds to the pH being at or between 5.5-6.5) |
| CC(C)[C@H](N)C(=O)O [L-Valine] | P (a Pass initial pH corresponds to the pH being at or between 5.5-6.5) |
| CC(O)C(N)=O (stereo not drawn) [DL Lactamide] | P (a Pass initial pH corresponds to the pH being at or between 5.5-6.5) |
| NO [Hydroxylamine] | H (a High initial pH corresponds to an initial pH being greater than 6.5) |
| NCC(=O)N[C@@H](CC(N)=O)C(=O)O [Gly-Asn] (H-Gly-Asn-OH) | P (a Pass initial pH corresponds to the pH being at or between 5.5-6.5) |
